Experimental findings from the Bradley open melting point set (2014) are described below.

“And” between values parts separate entries of the source, which are not always exact repeats. Equal entries are not always repeated.

A word on the melting point: it is the temperature, or range, at which the solid turns liquid. As to `NC(=S)C1COc2ccccc2O1` (stereo not given) [1,4-benzodioxane-2-thiocarboxamide], the melting point worked out at 174 °C.

Turning to `C#C[C@]1(O)CC[C@H]2[C@@H]3CCc4cc(O)ccc4[C@H]3CC[C@@]21C` [17alpha-ethynylestradiol], the melting point is 144 °C.

For the compound `COc1ccc(C=CC(=O)c2ccc(O)cc2)cc1` [2-Propen-1-one, 1-(4-hydroxyphenyl)-3-(4-methoxyphenyl)-], the melting point came out at 188 °C.

Regarding `Nc1ccc(Oc2ccccc2)cc1` [4-phenoxyaniline], the melting point was determined as 84 °C.

Compound `CCCCCCCCCCCCCC(=O)O` [Myristic acid] displayed a melting point of 55.1 °C.

For `CN(C)c1ccc(C=C/C(=N\Nc2ccccc2)c2ccccc2)cc1`, the melting point is 128 °C.

`O=[N+]([O-])c1ccc(C2OCCO2)cc1` [4-nitrobenzaldehyde ethylene glycol acetal] registered a melting point of 86 °C.

For `Cc1ccc(C(=O)O)cc1` [4-Methylbenzoic acid], the melting point was 181 °C.

Compound `O=C1C=C/C(=O)N(N1)C` [N-methylmaleic hydrazide] showed a melting point of 218 °C.

With `CCSC(SCC)=C1CCCC(=C(SCC)SCC)C1=C(C#N)C#N`, the melting point turned out to be 101 °C.

In the case of `c1ccc2c(c1)Oc1ccccc1S2` [Phenoxathiine], the melting point was 59.5 °C.

For `C1CC[C@H]2CCCC[C@H]2C1` [cis-decalin], the melting point is -43 °C.

As to `CCC(C)I` (stereo not given) [2-Iodobutane], the melting point was -104 °C.

`CCCCCCSc1cc(N(NC(=O)OC(C)(C)C)C(=O)OC(C)(C)C)cc(SCCCCCC)c1SCCCCCC` registered a melting point of 74.5 °C.

Regarding `c1ccc(CCCc2ccccc2)cc1` [1,3-diphenylpropane], the melting point was -21 °C.

With `CC(=O)CCC(=O)O` [Laevulinic Acid], the melting point was determined as 33 °C.

Compound `COC(=O)C12C=CC(CC1)C1C(=O)OC(=O)C12` (stereo not given) had a melting point of 117 °C.

`CC(=O)Br` [acetyl bromide] had a melting point of -96 °C.

Turning to `Cc1cc(B(O)O)ccc1Cl` [4-chloro-3-methylbenzeneboronic acid], the melting point turned out to be 240 °C.

`O=C(O)c1cccnc1` [nicotinic acid] [listing 1 of 2 here] gave a melting point of 237 °C.

Compound `CCCCCCOCCO` [2-(n-hexyloxy)ethanol] had a melting point of -42 °C.

Consider `NC(=O)c1cccc(N)c1` [m-aminobenzamide], for which the melting point stood at 115 °C.

Regarding `CCCCC[C@H]1CC[C@H](C(=O)O)CC1` [trans-4-n-pentylcyclohexanecarboxylic acid], the melting point is 54 °C.

Turning to `CCO[Si](OCC)(OCC)OCC` [tetraethoxysilane], the melting point is -85 °C.

For `CN(C)c1ccc(C2Nn3c(COc4ccccc4)nnc3S2)cc1` (stereo not given), the melting point amounted to 144 °C.

Consider `C=C1/C(=N/Nc2cc(Cl)c(Cl)cc2Cl)C(=O)N(C)C(=O)N1C`, for which the melting point came out at 244 °C.

`c1cc(C2CNCCN2)cs1` (stereo not given) [2-(3-thienyl)piperazine]: the melting point was 98 °C.

With `OCc1cccc(O)c1` [3-hydroxybenzyl_alcohol], the melting point was found to be 72 °C.

For the compound `COc1ccc(/C=C/c2ccccc2)cc1` [4-methoxystilbene], the melting point came out at 137 °C.

Regarding `CC(C)CCCC(C)C1CCC2C3CC(O)C4(O)CC(O)CCC4(C)C3CCC12C` (stereo not given), the melting point stood at 238 °C.

In turn, `CCOC(=O)CC(C)=O` [Ethyl 3-oxobutanoate] returned a melting point of -43 °C.

For `CC(COc1ccccc1)NC(C)C(O)c1ccc(O)cc1` (stereo not given) [isoxsuprine], the melting point worked out at 103 °C.

For the compound `N#Cc1ccccc1S(=O)(=O)Cl` [2-cyanobenzenesulfonyl chloride], the melting point was 67 °C.

`CCOC(=O)c1ccccc1` [ethyl benzoate] yielded a melting point of -34 °C.

For the compound `Cc1c(N(C)C)c(=O)n(-c2ccccc2)n1C` [aminopyrine], the melting point came out at 108 °C.

`O=C(O)/C=C/c1c(F)cccc1F` [2,6-difluorocinnamic acid]: the melting point was found to be 125 °C.

Take `OB(O)c1cccc2c1Sc1ccccc1S2` [thianthrene-1-boronic acid]: the melting point stood at 147 °C.

`OC(O)C(Cl)(Cl)Cl` [chloral hydrate] had a melting point of 57 °C.

Consider `CC1=C(C(=O)OCc2ccccc2)C(c2ccc3c(c2)OCO3)NC(=O)N1` (stereo not given), for which the melting point was found to be 159 °C.

In turn, `O=CC=O` [glyoxal] returned a melting point of 15 °C.

Turning to `Cc1cc(O)cc(C)c1Cl` [4-Chloro-3,5-dimethylphenol], the melting point worked out at 115 °C.

`Nc1c(Br)cc(Br)cc1[N+](=O)[O-]` [2,4-dibromo-6-nitroaniline] registered a melting point of 130 °C.

For the compound `NC(=O)N[C@@H]1O[C@H](CO)[C@@H](O)[C@H](O)[C@H]1O` [N-Carbamoyl-beta-D-glucopyranosylamine], the melting point turned out to be 207 °C.

In turn, `COC1=CC(=O)C[C@@H](C)[C@]12Oc1c(Cl)c(OC)cc(OC)c1C2=O` [Griseofulvin] showed a melting point of 220 °C.

The compound `COc1cccc(OC)c1C(C)=O` [2',6'-dimethoxyacetophenone] displayed a melting point of 70 °C.

`C=C(C)C(=O)OC(O)CC` (stereo not given) [1-Hydroxypropyl methacrylate]: the melting point was -58 °C.

`CC(C)CC(N)C(=O)O` (stereo in doubt) [D-Leucine] gave a melting point of 293 °C.

With `CCc1ccccc1Br` [1-bromo-2-ethylbenzene], the melting point is -68 °C.

The compound `CCCCCCCCCCCCc1ccccc1` [N-dodecylbenzene] gave a melting point of -7 °C.

For the compound `O=C(O)c1cccnc1` [nicotinic acid] [listing 2 of 2 here], the melting point was 237 °C (2×) and 238 °C.

`CCCCCCCCCCI` [1-iododecane] displayed a melting point of -16 °C.

As to `O=C1NC(=O)c2cc([N+](=O)[O-])ccc21` [5-Nitro-1H-isoindole-1,3(2H)-dione], the melting point was determined as 181 °C.

On to `c1cc2c3c(c1)ccc1cccc(c13)C2` [4H-Cyclopenta[def]phenanthrene], for which the melting point is 116 °C.

Take `Fc1ccccc1-c1ccccc1` [2-fluorobiphenyl]: the melting point is 74 °C.

As for `O=C(O)/C=C/c1ccccc1` [trans-cinnamic acid], the melting point came out at 135 °C.

`CC1=CC(=O)C=C(C)C1=O` [2,6-dimethyl-p-benzoquinone] displayed a melting point of 70 °C.

Consider `Cc1ccccc1` [toluene], for which the melting point is -93 °C.

For `O=[N+]([O-])c1cccc(O)c1` [m-nitrophenol], the melting point stood at 98 °C.

`CC(=O)OCC(OC(C)=O)C(OC(C)=O)C(OC(C)=O)C(OC(C)=O)C(=O)O` (stereo not given) [2,3,4,5,6-penta(acetyloxy)hexanoic acid]: the melting point turned out to be 110 °C.

The compound `Nc1ccc(C(=O)O)cc1` [4-aminobenzoic acid] displayed a melting point of 188 °C.

On to `O=c1c(O)c(-c2ccccc2O)oc2ccccc12` [2',3-dihydroxyflavone], for which the melting point is 203 °C.

Compound `ICI` [diiodomethane] showed a melting point of 6 °C.

`CCCCCCCCCCCCC=O` [tridecanal] displayed a melting point of 15 °C.

Regarding `COc1ccc(S(N)(=O)=O)cc1` [4-methoxybenzenesulfonamide], the melting point worked out at 112 °C.

`N#Cc1ccccc1[N+](=O)[O-]` [o-nitrobenzonitrile] registered a melting point of 109 °C.
